Results published in patent US20190367516A1 (Bayer Pharma Aktiengesellschaft, priority 2015, published 2019).
pEC50: −log10 of the molar value. Read-outs that look alike come from different tables or passages of the source.

Tests used:
human M2 receptor [1] = molecular target: T1, human M2 receptor (Homo sapiens, UniProt P08172); type: cell-based; conditions: α >1 = positive cooperativity
T1 sequence (P08172 1-466): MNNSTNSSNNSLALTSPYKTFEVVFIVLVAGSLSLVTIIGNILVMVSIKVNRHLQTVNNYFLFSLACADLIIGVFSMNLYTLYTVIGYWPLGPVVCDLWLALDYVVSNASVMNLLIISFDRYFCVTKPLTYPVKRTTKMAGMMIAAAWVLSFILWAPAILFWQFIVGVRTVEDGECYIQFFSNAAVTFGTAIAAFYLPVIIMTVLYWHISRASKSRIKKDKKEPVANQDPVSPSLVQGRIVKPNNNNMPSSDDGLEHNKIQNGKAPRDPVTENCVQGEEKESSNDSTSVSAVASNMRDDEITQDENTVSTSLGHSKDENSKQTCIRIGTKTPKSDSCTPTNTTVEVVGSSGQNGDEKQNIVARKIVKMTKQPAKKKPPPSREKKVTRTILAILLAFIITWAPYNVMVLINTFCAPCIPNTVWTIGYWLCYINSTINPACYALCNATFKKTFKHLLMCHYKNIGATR

human M2 receptor [2] = molecular target: T1, human M2 receptor; conditions: for Efficiency: boosting of the acetylcholine effect at EC20 acetylcholine concentration
[3] = shift in the acetylcholine dose-response curve (Allosteric EC50 shift, GraphPad PRISM)
[4] = Receptor activity EC50, M2-GIRK1/4 activation test, acetylcholine at EC20, allosteric potency, in some cases mean values from two or more determinations
[5] = shift of acetylcholine dose-response curve (Allosteric EC50 shift)
[6] = Receptor activity EC50, allosteric potency at EC20 acetylcholine, M2-GIRK1/4 reporter cells, in some cases mean of two or more determinations
[7] = read-out: Efficiency, boosting of the acetylcholine effect at EC20 acetylcholine concentration, M2-GIRK1/4 reporter cells

Row | Compound | Cooperativity (alpha factor) (human M2 receptor [1]; [3]) | pEC50 (human M2 receptor [2]; [4]) | also measured
1 | CC[C@@H](NC(=O)c1cn(-c2ccc(F)cc2F)c2nc(N3CC(O)(C(F)(F)F)C3)ccc2c1=O)C(F)(F)F [Example 262, 1-(2,4-Difluorophenyl)-7-[3-hydroxy-3-(trifluoromethyl)azetidin-1-yl]-4-oxo-N-[(2R)-1,1,1-trifluorobutan-2-yl]-1,4-dihydro-1,8-naphthyridine-3-carboxamide] | 27 | 7.14 | 
2 | CC[C@H](NC(=O)c1cn(-c2c(F)cc(F)cc2F)c2nc(N3CCN/C3=N\C(=O)OC)ccc2c1=O)C(F)(F)F [Example 377, Methyl {1-[5-oxo-6-{[(2S)-1,1,1-trifluorobutan-2-yl]carbamoyl}-8-(2,4,6-trifluorophenyl)-5,8-dihydro-1,8-naphthyridin-2-yl]imidazolidin-2-ylidene}carbamate] | 34 | 7.32 | 
3 | CC[C@@H](NC(=O)c1cn(-c2ccc(F)cc2F)c2nc(N3CCC3=O)ccc2c1=O)C(F)(F)F [Example 205, 1-(2,4-Difluorophenyl)-4-oxo-7-(2-oxoazetidin-1-yl)-N-[(2R)-1,1,1-trifluorobutan-2-yl]-1,4-dihydro-1,8-naphthyridine-3-carboxamide] | 4 | 6.98 | 
4 | CN(CC(=O)O)c1ccc2c(=O)c(C(=O)N[C@@H](C3CC3)C(F)(F)F)cn(-c3c(F)cc(F)cc3F)c2n1 [Example 385, N-[6-{[(1S)-1-Cyclopropyl-2,2,2-trifluoroethyl]carbamoyl}-5-oxo-8-(2,4,6-trifluorophenyl)-5,8-dihydro-1,8-naphthyridin-2-yl]-N-methylglycine] | 11 | 7.17 | 
5 | CCC(NC(=O)c1cn(-c2ccc(F)cc2F)c2nc(N(C)CCF)ccc2c1=O)C(F)(F)F (racemic) [Example 104, rac-1-(2,4-Difluorophenyl)-7-[(2-fluoroethyl)(methyl)amino]-4-oxo-N-[1,1,1-trifluorobutan-2-yl]-1,4-dihydro-1,8-naphthyridine-3-carboxamide] | 15 | 7.55 | 
6 | O=C(NC(C1CC1)C(F)(F)F)c1cn(-c2c(F)cccc2F)c2nc(N3C[C@@H](O)CC3=O)ccc2c1=O (mixture of isomers) [Example 295, N-[1-Cyclopropyl-2,2,2-trifluoroethyl]-1-(2,6-difluorophenyl)-7-[(4S)-4-hydroxy-2-oxopyrrolidin-1-yl]-4-oxo-1,4-dihydro-1,8-naphthyridine-3-carboxamide] | 71 | 7.68 | 
7 | CC[C@@H](NC(=O)c1cn(-c2ccc(F)cc2F)c2nc(N3CC4CNC(=O)C4C3)ccc2c1=O)C(F)(F)F (mixture of isomers) [Example 221, 1-(2,4-Difluorophenyl)-4-oxo-7-[4-oxohexahydrpyrrolo[3,4-c]pyrrol-2(1H)-yl]-N-[(2R)-1,1,1-trifluorobutan-2-yl]-1,4-dihydro-1,8-naphthyridine-3-carboxamide] | 24 | 6.97 | 
8 | CC[C@@H](NC(=O)c1cn(-c2ccccc2F)c2nc(N3C[C@@H](O)CC3=O)ccc2c1=O)C(F)(F)F [Example 239, 1-(2-Fluorophenyl)-7-[(4S)-4-hydroxy-2-oxopyrrolidin-1-yl]-4-oxo-N-[(2R)-1,1,1-trifluorobutan-2-yl]-1,4-dihydro-1,8-naphthyridine-3-carboxamide] | 30 | 6.95 | Emax (human M2 receptor [2]; read-out: Efficiency): 99.3%
9 | CC(C)C(NC(=O)c1cn(-c2c(F)cc(F)cc2F)c2nc(N3C[C@@H](O)CC3=O)ccc2c1=O)C(F)(F)F (single isomer, unassigned) [Example 528] |  |  | Cooperativity (alpha factor) (human M2 receptor [1]; [5]): 66; pEC50 (human M2 receptor [2]; [6]): 8.22; Efficiency (human M2 receptor [2]; M2-GIRK1/4 reporter cells): 100.0%
10 | CC[C@@H](NC(=O)c1cn(-c2c(F)cccc2F)c2nc(N3C[C@@H](O)[C@H](O)C3)ccc2c1=O)C(F)(F)F [Example 618, 1-(2,6-Difluorophenyl)-7-[(3R,4R)-3,4-dihydroxypyrrolidin-1-yl]-4-oxo-N-[(2R)-1,1,1-trifluorobutan-2-yl]-1,4-dihydro-1,8-naphthyridine-3-carboxamide] |  |  | Cooperativity (alpha factor) (human M2 receptor [1]; [5]): 30; pEC50 (human M2 receptor [2]; [6]): 7.41; Emax (human M2 receptor [2]; [7]): 99%
11 | CC[C@@H](NC(=O)c1cn(-c2ccc(F)cc2F)c2nc(NCCF)ccc2c1=O)C(F)(F)F [Example 27, 1-(2,4-Difluorophenyl)-7-[(2-fluoroethyl)amino]-4-oxo-N-[(2R)-1,1,1-trifluorobutan-2-yl]-1,4-dihydro-1,8-naphthyridine-3-carboxamide] | 20 | 7.05 | 
12 | CC[C@@H](NC(=O)c1cn(-c2ccc(F)cc2F)c2nc(N3CCC(C)(OC)C3=O)ccc2c1=O)C(F)(F)F (single isomer, unassigned) [Example 198] | 13 | 6.95 | 
13 | CCC(COC(F)(F)F)NC(=O)c1cn(-c2c(F)cc(F)cc2F)c2nc(N3C[C@@H](O)CC3=O)ccc2c1=O (mixture of isomers) [Example 410, 7-[(4S)-4-Hydroxy-2-oxopyrrolidin-1-yl]-4-oxo-N-[1-(trifluoromethoxy)butan-2-yl]-1-(2,4,6-trifluorophenyl)-1,4-dihydro-1,8-naphthyridine-3-carboxamide] |  |  | Cooperativity (alpha factor) (human M2 receptor [1]; [5]): 36; pEC50 (human M2 receptor [2]; [6]): 8.05; Emax (human M2 receptor [2]; [7]): 87%
14 | CC[C@@H](NC(=O)c1cn(-c2ccc(F)cc2F)c2nc(N3C[C@@H](O)[C@@H](O)C3)ccc2c1=O)C(F)(F)F [Example 639, 1-(2,4-Difluorophenyl)-7-[(3R,4S)-3,4-dihydroxypyrrolidin-1-yl]-4-oxo-N-[(2R)-1,1,1-trifluorobutan-2-yl]-1,4-dihydro-1,8-naphthyridine-3-carboxamide] |  |  | Cooperativity (alpha factor) (human M2 receptor [1]; [5]): 25; pEC50 (human M2 receptor [2]; [6]): 7.17; Emax (human M2 receptor [2]; [7]): 96.5%
15 | O=C(NC(c1c(F)cccc1F)C(F)(F)F)c1cn(-c2ccc(F)cc2F)c2nc(N3CC[C@H](F)C3)ccc2c1=O (single isomer, unassigned) [Example 243] | 33 | 7.82 | 
16 | CC[C@@H](NC(=O)c1cn(-c2ccc(F)cc2F)c2nc(N3CCC(C)(OC)C3=O)ccc2c1=O)C(F)(F)F (single isomer, unassigned) [Example 199] | 15 | 6.58 | 
17 | CC[C@@H](NC(=O)c1cn(-c2ccc(F)cc2F)c2nc(N3CCC(O)C3=O)ccc2c1=O)C(F)(F)F (mixture of isomers) [Example 224, 1-(2,4-Difluorophenyl)-7-[3-hydroxy-2-oxopyrrolidin-1-yl]-4-oxo-N-[(2R)-1,1,1-trifluorobutan-2-yl]-1,4-dihydro-1,8-naphthyridine-3-carboxamide] | 31 | 6.80 | 
18 | O=C(NC(c1ccccc1Cl)C(F)(F)F)c1cn(-c2ccccc2F)c2nc(N3CCC(O)C3=O)ccc2c1=O (single isomer, unassigned) [Example 288] | 12 | 7.40 | 
19 | C[C@H](NC(=O)c1cn(-c2c(F)cc(F)cc2Cl)c2nc(N3CCC(C)(C)C3=O)ccc2c1=O)C(F)(F)F [Example 335, 1-(2-Chloro-4,6-difluorophenyl)-7-(3,3-dimethyl-2-oxopyrrolidin-1-yl)-4-oxo-N-[(2S)-1,1,1-trifluoropropan-2-yl]-1,4-dihydro-1,8-naphthyridine-3-carboxamide] | 7 | 7.64 | 
20 | CC[C@H](NC(=O)c1cn(-c2c(F)cc(F)cc2F)c2nc(N3CC(O)C4(CC4)C3)ccc2c1=O)C(F)(F)F (single isomer, unassigned) [Example 621] |  |  | Cooperativity (alpha factor) (human M2 receptor [1]; [5]): 44; pEC50 (human M2 receptor [2]; [6]): 8.00; Efficiency (human M2 receptor [2]; M2-GIRK1/4 reporter cells): 100.0%
21 | CC(NC(=O)c1cn(-c2ccc(F)cc2F)c2nc(NCC(F)(F)F)ccc2c1=O)C(F)(F)F (stereo not drawn) [Example 93, 1-(2,4-Difluorophenyl)-4-oxo-7-[(2,2,2-trifluoroethyl)amino]-N-[1,1,1-trifluoropropan-2-yl]-1,4-dihydro-1,8-naphthyridine-3-carboxamide] | 8 | 6.67 | 
22 | O=C(NC(c1ccccc1Cl)C(F)(F)F)c1cn(-c2c(F)cc(F)cc2F)c2nc(N3C[C@@H](O)[C@H](O)C3)ccc2c1=O (single isomer, unassigned) [Example 561] |  |  | Cooperativity (alpha factor) (human M2 receptor [1]; [5]): 62; pEC50 (human M2 receptor [2]; [6]): 8.40; Emax (human M2 receptor [2]; [7]): 95%
23 | CC[C@H](NC(=O)c1cn(-c2ccc(F)cc2F)c2nc(N3C[C@H](O)CC3=O)ccc2c1=O)C(F)(F)F [Example 285, 1-(2,4-Difluorophenyl)-7-[(4R)-4-hydroxy-2-oxopyrrolidin-1-yl]-4-oxo-N-[(2S)-1,1,1-trifluorobutan-2-yl]-1,4-dihydro-1,8-naphthyridine-3-carboxamide] | 23 | 6.22 | Emax (human M2 receptor [2]; read-out: Efficiency): 79.9%
24 | CC[C@H](NC(=O)c1cn(-c2c(F)cc(F)cc2Cl)c2nc(N3C[C@@H](O)CC3=O)ccc2c1=O)C(F)(F)F (single isomer, unassigned) [Example 399] |  |  | Cooperativity (alpha factor) (human M2 receptor [1]; [5]): 11; pEC50 (human M2 receptor [2]; [6]): 7.40; Emax (human M2 receptor [2]; [7]): 96.5%
